US8263617B2, “Chromen-2-one derivatives and their use as monoamine neurotransmitter re-uptake inhibitors” (Neurosearch A/S, priority 2006, dated 2012)
Structures can show the parent of a compound that is named as a salt.

Legend:
Format in all cases: biochemical
[1] = target: T1, reuptake of noradrenaline (NA) in synaptosomes (Rattus norvegicus, UniProt Q63380); test: Inhibition of NA reuptake in synaptosomes; settings: 3H-NA, read-out: NA-uptake IC50
T1 construct: in synaptosomes as described in WO 97/16451; from tissue
Method: (§1) A number of compounds were tested for their ability to inhibit the reuptake of the monoamine neurotransmitters dopamine (DA), noradrenaline (NA) and serotonine (5-HT) in synaptosomes as described in WO 97/16451.
(§2) The test values are given as IC50 (the concentration (μM) of the test substance which inhibits the specific binding of ^3H-DA, ^3H-NA, or ^3H-5-HT by 50%).

[2] = target: T2, reuptake of serotonine (5-HT) in synaptosomes (Rattus norvegicus, UniProt P31652); test: Inhibition of 5-HT reuptake in synaptosomes; settings: 3H-5-HT, read-out: 5-HT-uptake IC50
T2 construct: in synaptosomes as described in WO 97/16451; from tissue
Method: as §1, §2

[3] = target: T3, reuptake of dopamine (DA) in synaptosomes (Rattus norvegicus, UniProt P23977); test: Inhibition of DA reuptake in synaptosomes; settings: 3H-DA, read-out: DA-uptake IC50
T3 construct: in synaptosomes as described in WO 97/16451; from tissue
Method: as §1, §2

T3 sequence (P23977 whole entry): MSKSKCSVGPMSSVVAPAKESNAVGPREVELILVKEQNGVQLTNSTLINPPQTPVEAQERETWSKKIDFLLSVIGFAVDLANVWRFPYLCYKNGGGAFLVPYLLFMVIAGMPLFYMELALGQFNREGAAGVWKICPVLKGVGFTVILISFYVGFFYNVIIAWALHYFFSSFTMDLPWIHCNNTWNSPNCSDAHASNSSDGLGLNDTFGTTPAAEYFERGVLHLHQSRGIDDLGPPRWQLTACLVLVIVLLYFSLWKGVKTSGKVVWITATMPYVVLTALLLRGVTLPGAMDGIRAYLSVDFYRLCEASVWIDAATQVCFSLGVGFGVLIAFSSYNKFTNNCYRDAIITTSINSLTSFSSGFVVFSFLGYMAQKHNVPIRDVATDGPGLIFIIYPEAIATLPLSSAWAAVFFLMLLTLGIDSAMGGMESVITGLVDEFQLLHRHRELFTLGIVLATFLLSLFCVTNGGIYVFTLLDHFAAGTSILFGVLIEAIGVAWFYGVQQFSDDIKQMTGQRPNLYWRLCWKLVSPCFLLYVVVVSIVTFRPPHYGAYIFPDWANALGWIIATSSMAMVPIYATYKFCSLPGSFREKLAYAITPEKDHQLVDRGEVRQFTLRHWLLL
T1 sequence (Q63380 1-617): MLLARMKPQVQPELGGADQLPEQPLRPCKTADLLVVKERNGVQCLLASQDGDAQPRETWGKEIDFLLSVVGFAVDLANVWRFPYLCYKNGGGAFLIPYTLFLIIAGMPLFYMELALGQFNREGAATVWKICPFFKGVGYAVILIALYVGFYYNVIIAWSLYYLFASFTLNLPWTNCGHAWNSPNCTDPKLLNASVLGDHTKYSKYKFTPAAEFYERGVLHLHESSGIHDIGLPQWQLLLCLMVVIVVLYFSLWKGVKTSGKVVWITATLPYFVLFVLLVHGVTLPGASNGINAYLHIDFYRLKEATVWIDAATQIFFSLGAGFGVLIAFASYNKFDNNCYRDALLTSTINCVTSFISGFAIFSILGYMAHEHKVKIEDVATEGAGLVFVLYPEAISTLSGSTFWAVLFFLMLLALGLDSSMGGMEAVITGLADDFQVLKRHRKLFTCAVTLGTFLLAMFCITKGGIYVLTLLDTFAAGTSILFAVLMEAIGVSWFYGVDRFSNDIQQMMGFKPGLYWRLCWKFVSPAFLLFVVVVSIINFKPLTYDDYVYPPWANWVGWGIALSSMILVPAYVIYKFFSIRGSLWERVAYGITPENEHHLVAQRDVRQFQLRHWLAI
T2 sequence (P31652 whole entry): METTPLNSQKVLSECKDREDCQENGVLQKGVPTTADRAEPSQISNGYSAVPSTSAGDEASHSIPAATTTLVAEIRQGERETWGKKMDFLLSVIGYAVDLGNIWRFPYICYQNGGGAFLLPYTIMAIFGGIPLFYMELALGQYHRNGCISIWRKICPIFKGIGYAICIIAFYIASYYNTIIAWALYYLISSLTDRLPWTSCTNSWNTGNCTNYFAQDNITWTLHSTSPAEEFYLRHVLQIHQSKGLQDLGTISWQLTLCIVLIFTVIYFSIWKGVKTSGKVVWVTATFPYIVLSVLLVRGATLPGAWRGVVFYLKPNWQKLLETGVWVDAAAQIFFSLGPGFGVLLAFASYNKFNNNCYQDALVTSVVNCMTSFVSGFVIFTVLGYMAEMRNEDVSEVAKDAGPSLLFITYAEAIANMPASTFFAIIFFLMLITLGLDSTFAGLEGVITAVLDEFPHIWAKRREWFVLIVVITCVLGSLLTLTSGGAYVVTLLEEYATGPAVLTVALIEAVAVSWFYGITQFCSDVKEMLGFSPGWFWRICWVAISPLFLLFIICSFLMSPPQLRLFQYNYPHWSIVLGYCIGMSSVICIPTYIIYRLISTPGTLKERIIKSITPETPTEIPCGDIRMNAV

Row | Compound | IC50 [1] [nM] | IC50 [2] [nM] | IC50 [3] [nM]
1 | O=c1oc2cc(OC3CC4CCC(C3)N4)ccc2cc1-c1ccco1 [1st Compound of Method A, exo-7-[(1S,3S,5R)-(8-Aza-bicyclo[3.2.1]oct-3-yl)oxy]-3-furan-2-yl-chromen-2-one hydrochloric acid salt] | 4.3 | 7.7 | 34
2 | O=c1oc2cc(OC3CC4CCC(C3)N4)ccc2cc1-c1ccoc1 [2nd Compound of Method A, exo-7-[(1S,3S,5R)-(8-Aza-bicyclo[3.2.1]oct-3-yl)oxy]-3-furan-3-yl-chromen-2-one hydrochloric acid salt] | 0.48 | 10 | 9.9
3 | O=c1oc2cc(OC3CC4CCC(C3)N4)ccc2cc1-c1cc2ccccc2o1 [3rd Compound of Method A, exo-7-[(1S,3S,5R)-(8-Aza-bicyclo[3.2.1]oct-3-yl)oxy]-3-benzofuran-2-yl-chromen-2-one hydrochloric acid salt] | 840 | 9.1 | 700
